This note sets out measurements from patent US9464080B2, “Substituted pyrido[2,3-d]pyrimidines for dry skin and anti-ageing application” (L'OREAL, priority 2012, dated 2016).

What all share (assay type): cell-based
Experiment [1] deals with Episkin™ reconstructed epidermis. The experiment in a line: HES morphological observation of treated Episkin reconstructed epidermis. The note with it: systemic treatment over 5 days. As for the experimental part:
(§1) The reconstructed epidermises, received from the Episkin company at six days of reconstruction, were placed back into culture, when received, in 3.5 ml of differentiation medium (Episkin™ medium) under insert (in emersion) in an incubator for 48 hours (37° C., 5% CO2).
(§2) The epidermises were subsequently contacted with the test compounds systemically. The Episkin™ differentiation culture medium is replaced by a differentiation medium containing the test compounds with 0.1% of final DMSO vehicle. The epidermises were placed back into culture in the incubator for 48 hours. A new systemic treatment is carried out for a further 72 hours in culture in the incubator.
(§3) For the treatment on Episkin™, each test compound was prepared at the time of use by being weighed out and dissolved at 10 mM in DMSO, then used to treat 3 samples of reconstructed epidermis. […] The positive controls used were vitamin D3, retinol and calcipotriol (a vitamin D3 analogue).
(§4) The epidermises were withdrawn (3 epidermises per treatment) for histological analysis and protein extracts (a single reconstructed epidermis is used for the histological study and the protein extract).
Morphological control of the reconstructed epidermises treated was carried out using HES (Hematoxylin—Eosin—Saffron) staining in accordance with a standard protocol on the histological sections of the samples enclosed in paraffin (toluene bath: thrice 15 minutes; 100° alcohol baths; twice one minute; 95° alcohol baths: one minute; rinsing in water baths; hematoxylin bath: once 2 minutes; rinsing in water baths; brief immersion in a hydrochloric acid bath; rinsing with water; eosin bath: once one minute; rinsing with water; brief immersion in a 100° alcohol bath; saffron bath (5 minutes); brief immersion in a 100° alcohol bath; toluene bath: thrice 2 minutes).

A further experiment deals with CD44. The experiment in a line: CD44 immunolabelling of treated Episkin reconstructed epidermis. The note with it: for CD44: Episkin, systemic treatment over 5 days, effect generally rated for the highest concentration used (10 μM). As for the experimental part: as §1, §2
For the treatment on Episkin™, each test compound was prepared at the time of use by being weighed out and dissolved at 10 mM in DMSO, then used to treat 3 samples of reconstructed epidermis. Furthermore, each compound under test was employed at a final 1 and […] in the culture medium (0.1% final DMSO). The positive controls used were vitamin D3, retinol and calcipotriol (a vitamin D3 analogue).
as §4
The samples of epidermis were enclosed in OCT for freezing in liquid nitrogen and then stored at −80° C. The resulting blocks were cut to a thickness of 7 μm using a cryostat, and the slices were dried and stored at −20° C. while awaiting immunolabelling.
The labels selected for the immunolabelling are as follows: • Ki67 to provide information on any change in cell proliferation in the basal layer, and • CD44 to provide information on any change in the metabolism of the living layers and in the proliferation/differentiation balance.

A further experiment has as its system Ki67. The experiment in a line: Ki67 immunolabelling of treated Episkin reconstructed epidermis. As for the experimental part: as §1, §2, §3, §4
The samples of epidermis were enclosed in OCT for freezing in liquid nitrogen and then stored at −80° C. […]

[2] abbreviates: effect generally rated for the highest concentration used (10 μM).

In turn, `CCOC(=O)C1=C(C)Nc2c(c(=O)n(C)c(=O)n2C)C1c1cccc(Oc2ccccc2)c1` (stereo not drawn) [Compound (2)] displayed an HES in experiment [1] (setting [2]) of 0. In the experiment on CD44, this compound displayed a CD44 of 0.

For the compound `CCOC(=O)C1=C(C)Nc2c(c(=O)n(C)c(=O)n2C)C1CC(C)C` (stereo not drawn) [Compound (4)], the HES in experiment [1] (setting [2]) is recorded as 0. In the experiment with Ki67 (Episkin samples treated, FIG. 2), the Ki67 labelling result was “strong increase in Ki67 labelling”. In addition, the CD44 immunolabelling result in the experiment with CD44 (Episkin samples treated, FIG. 3) is “increase in CD44”. Besides, the CD44 entry with CD44 is listed as “++ (*)”.

In the case of `CC1=C(/C=C/C(C)=C/C=C/C(C)=C/CO)C(C)(C)CCC1` [Retinol, retinol, reference compound], the HES in experiment [1] (100 μM) was found to be 0. Also, the Ki67 with Ki67 (Episkin, systemic treatment over 5 days, 100 μM) was 0.

As to `C=C1CC[C@H](O)C/C1=C/C=C1\CCC[C@]2(C)[C@@H]([C@H](C)CCCC(C)C)CC[C@@H]12` [Vitamin D3, vitamin D3, reference compound], the HES in experiment [1] (setting [2]) was 0.
